Experimental findings from patent US20190231751A1, “TREATMENT OF FIBROTIC DISORDERS WITH JUN N-TERMINAL KINASE INHIBITORS” (Imago Pharmaceuticals, Inc., priority 2016, published 2019) are described below.

One test deals with JNK2 (Homo sapiens, UniProt P45984). Kind of test: In vitro JNK2 inhibition (Table 1). Type of test: biochemical. The procedure: (§1) In vitro assays for the determination of JNK activities are known in the art and exemplary assay formats are described herein.
(§2) IC50 values in Table 1 were determined using the procedures as described in U.S. Pat. No. 8,450,353.

For the next test, the system named is SMAD2. Kind of test: TGF-β1-induced SMAD2 phosphorylation in HFL-1 cells (Western blot). Type of test: cell-based, human. The note with it: TGF-β1 1 ng/ml. The procedure:
TGF-β1 factors initiate signaling by assembling receptor complexes that activate SMAD proteins. IGP001 and IGP002 are tested for their ability to suppress TGF-031 induction of SMAD signaling pathway by detecting the dually phosphorylated (Ser 465/Ser 467) form of SMAD2 by Western blotting against specific anti-phosphokinase antibody.
(§3) HFL-1 cells are created as described above in Example 3. HFL-1 cells are cultured with 0.1% DMSO (control vehicle), IGP001 or IGP002 for 30 min before stimulation with TGF-β1 (1 ng/ml) for 4 hours. Total RNA is extracted and hybridized with human CTGF probes, and messenger RNA levels are quantified by densitometry and optical density of CTGF mRNA band was corrected for G3PDH, and results are expressed as ratio (%) of control value (TGF-β1-stimulated HFL-1 cells).
Phosphorylation of SMAD2 following treatment with IGP001 or IGP002 are also determined by Western blotting whole cell lysates using an antibody specific for phosphorylated forms of SMAD2.
(In general: Immunoblotting shows a protein as a band on a membrane.)

The subject of test [1] is bleomycin-induced lung fibrosis. Kind of test: Mouse bleomycin-induced lung fibrosis model, therapeutic study. Type of test: in vivo. Conditions: 30 mg/kg b.i.d. oral gavage starting 7 days after bleomycin; male and female mice; 14 days. The procedure: Age and gender-matched wild type mice on the C57BL/6 background were utilized for this study, as outlined in Table 3: Mice were housed in a sterile barrier facility and given a single inhaled dose of 1.25 Units/kg pharmacologic grade bleomycin (Teva Pharmaceuticals, Israel) in a volume of 50 μl. Mice received twice daily administered IGP001, via oral gavage, on a b.i.d. schedule starting 7 days after bleomycin treatment in this therapeutic study. Mice were sacrificed at 14 days following the administration of bleomycin and assessed as appropriate for deposited collagen in the lungs using Masson's Trichrome stain.

For another test, the system named is CTGF mRNA. Kind of test: TGF-β1-induced CTGF mRNA expression in HFL-1 cells. The note with it: compound 30 min before TGF-β1 1 ng/ml for 4 hours. The format is cell-based, human. The procedure:
as §3

The next test concerns the target JNK3 (Homo sapiens, UniProt P53779). Kind of test: In vitro JNK3 inhibition (Table 1). The format is biochemical. The procedure:
as §1, §2

For test [2], the system named is transgenic SREBP-1c model of NASH. Kind of test: Transgenic SREBP-1c model of NASH. The note with it: 10 mg/kg/day p.o. The format is in vivo, mice. The procedure: The ability of IGP001 and IGP002 are tested in the transgenic SREBP-1c model of NASH. SREBP-1c is a lipogenic transcription factor, and overexpression creates a model of congenital lipodystrophy in which severe insulin resistance and diabetes develop secondary to impaired adipose differentiation (Shimomura I et al., Genes Dev 1998; 12: 3182-3194). In these mice, decreased fat tissue with lipid accumulation in the liver is observed, and marked hepatic steatosis occurs by […] of age. When fed a standard diet, steatosis, lobular inflammation, and perivenular and pericellular fibrosis develop at 20 weeks (Nakayama H, et al., Metabolism 2007; 56: 470-475; Takahashi Y, World J Gastroenterol. 2012 May 21; 18(19): 2300-2308).

Test [3] has as its system monocyte/macrophage recruitment. Kind of test: Monocyte/macrophage recruitment in vivo (Example 9). Conditions: 10 mg/kg/day p.o.; model not specified.
For a further test, the target named is JNK1 (Homo sapiens, UniProt P45983). Kind of test: In vitro JNK1 inhibition (Table 1). Type of test: biochemical. The procedure: as §1, §2
Sequence of JNK1 (P45983 whole entry, species assumed): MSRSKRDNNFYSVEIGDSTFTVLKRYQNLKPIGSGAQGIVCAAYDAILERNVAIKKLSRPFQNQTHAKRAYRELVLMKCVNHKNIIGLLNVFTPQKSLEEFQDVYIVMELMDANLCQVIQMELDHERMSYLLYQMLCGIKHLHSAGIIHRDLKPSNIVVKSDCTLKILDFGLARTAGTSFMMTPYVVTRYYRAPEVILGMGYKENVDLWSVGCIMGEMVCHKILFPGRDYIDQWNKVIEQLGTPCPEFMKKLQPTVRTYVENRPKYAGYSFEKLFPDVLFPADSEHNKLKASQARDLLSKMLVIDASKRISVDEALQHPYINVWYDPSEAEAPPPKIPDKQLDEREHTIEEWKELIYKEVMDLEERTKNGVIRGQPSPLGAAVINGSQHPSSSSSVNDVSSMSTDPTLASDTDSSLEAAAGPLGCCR
The subject of test [4] is c-Jun phosphorylation at serine 63. Kind of test: ELISA of c-Jun phosphorylation in PBMC of treated rats. The format is in vivo, rat. Conditions: 10 and 30 mg/kg; kainic acid treated rats. The procedure:
Blood from the animals treated with kainic acid as per Example 1 above was processed for the characterization of peripheral blood mononuclear cells (PBMC) from the treated animals. Briefly, the final blood samples from the exsanguinated rats were immediately centrifuged at 3,000 g for 10 minutes at 4° C. The plasma in upper layer was removed, and the remaining portion used for the isolation of the PBMC.
The buffy coat of PBMCs at the erythrocyte-plasma interface and the top red cell layer were collected into a 15 mL falcon tube containing 3 ml chilled PBS. The sample was resuspended and transferred to other 15 mL falcon tubes containing 6 ml Ficoll-Paque plus density gradient, and centrifuged at 18° C. for 10 minutes at 800 g. […] The middle ‘cloudy’ interface layer between plasma and Ficoll containing the PBMCs was transferred to a 15 mL tube, washed with 10 mL of cold PBS (4° C., 1×PBS), and centrifuged for 5 min at 4° C. at 1000 g. The supernatant was discarded.
The isolated PBMC were subjected to an ELISA assay using a kit for the detection of c-Jun phosphorylation at serine 63. Detection of phospho-Jun was carried out for the PMBCs of each kainic acid administered rat group: those receiving IGP001 in vehicle, those receiving IGP002 in vehicle, or those receiving vehicle alone.
In general terms: ELISA stands for enzyme-linked immunosorbent assay.

Test [5] relates to thioacetamide-induced liver fibrosis. Kind of test: Thioacetamide-induced rat model of liver fibrosis. Type of test: in vivo. Conditions: 10 mg/kg/day p.o. The procedure: The antifibrotic effects of IGP001 and IGP002 are also evaluated in a thioacetamide-induced rat model of liver fibrosis. Study assessments include body and liver/kidney weight, liver function test, liver/kidney morphology and collagen deposition, fibrogenic gene and protein expression, and pharmacokinetic analyses.

pIC50: −log10 of the molar value.

Sequence of JNK3 (P53779 whole entry, species assumed): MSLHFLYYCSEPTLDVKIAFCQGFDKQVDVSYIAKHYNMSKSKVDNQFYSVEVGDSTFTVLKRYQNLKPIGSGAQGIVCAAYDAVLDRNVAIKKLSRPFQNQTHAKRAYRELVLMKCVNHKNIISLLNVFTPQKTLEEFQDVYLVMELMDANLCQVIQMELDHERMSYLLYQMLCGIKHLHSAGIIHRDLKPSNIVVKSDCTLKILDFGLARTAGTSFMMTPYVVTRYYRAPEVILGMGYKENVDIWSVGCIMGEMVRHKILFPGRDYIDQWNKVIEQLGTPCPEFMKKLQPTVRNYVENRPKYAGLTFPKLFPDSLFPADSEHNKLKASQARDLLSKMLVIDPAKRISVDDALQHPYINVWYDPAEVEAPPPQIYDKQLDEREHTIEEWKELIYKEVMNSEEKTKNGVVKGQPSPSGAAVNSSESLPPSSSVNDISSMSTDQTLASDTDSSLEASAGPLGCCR
Sequence of JNK2 (P45984 whole entry, species assumed): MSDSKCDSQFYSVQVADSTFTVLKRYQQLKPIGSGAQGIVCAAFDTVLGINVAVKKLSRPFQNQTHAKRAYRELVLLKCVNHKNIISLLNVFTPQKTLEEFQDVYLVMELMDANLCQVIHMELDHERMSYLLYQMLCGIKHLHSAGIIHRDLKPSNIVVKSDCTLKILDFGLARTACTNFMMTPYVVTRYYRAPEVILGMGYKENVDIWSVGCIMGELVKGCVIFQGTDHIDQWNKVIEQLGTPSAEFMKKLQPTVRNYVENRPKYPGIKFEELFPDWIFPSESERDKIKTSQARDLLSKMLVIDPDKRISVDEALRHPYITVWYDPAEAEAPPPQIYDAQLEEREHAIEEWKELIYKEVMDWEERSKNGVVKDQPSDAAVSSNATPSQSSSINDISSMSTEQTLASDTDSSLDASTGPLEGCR

Regarding `O=C(Cn1c(=O)ccc2cc(C(F)(F)F)ccc21)Nc1scc(Br)c1-c1nnc[nH]1` [IGP001, N-(4-bromo-3-(1H-1,2,4-triazol-5-yl)thiophen-2-yl)-2-(2-oxo-6-(trifluoromethyl)quinolin-1(2H)-yl)acetamide], the pIC50 against JNK2, against JNK3 and at JNK1 was greater than 7.00 each time. Further, the “amounts of phosphorylated SMAD2” value in the test on SMAD2 is reported as “significantly increase”. The “deposited collagen in the lungs (Masson's Trichrome stain)” value in [1] is given as “significantly reduced deposited collagen”. Besides, the “CTGF mRNA expression” value in the test with CTGF mRNA was “suppressed CTGF mRNA expression by HFL-1 cells stimulated with TGF-β1 in a dose-dependent fashion”. Moreover, the collagen deposition entry in test [2] and in test [5] (thioacetamide-induced model) was “significant reductions in collagen deposition” each time. Moreover, the “collagen type 1 protein and mRNA expression” value was “significant reductions in collagen deposition, and collagen type 1 protein and mRNA expression” in test [2]; “significant reductions in collagen deposition, and collagen type 1 protein and mRNA expression” in test [5] (thioacetamide-induced model). In addition, the “monocyte/macrophage recruitment in vivo” value in [3] is given as “significantly reduce monocyte/macrophage recruitment”. Moreover, the “c-Jun phosphorylation in PBMC” value in test [4] is “decrease in c-Jun phosphorylation”. Further, the “non-alcoholic fatty liver disease activity score” value in [5] (thioacetamide-induced NASH model) was “significantly reduce the non-alcoholic fatty liver disease activity score”.
